Laboratory results published in US9718787B2, “Poly (ADP-ribose) polymerase inhibitor” (CHENGDU DI'AO PHARMACEUTICAL GROUP CO., LTD., priority 2011, dated 2017).
Blank lines part the entries; values can stand above or below the compound they belong to.

Columns and labels:
[1] = tested on: prostatic cancer cell line DU-145; experiment: Cell proliferation inhibition assay, DU-145 (Cell Titer-Glo, 5 days); type: cell-based; settings: Homo sapiens, 120 h; DU-145, 5 days
[2] = tested on: breast cancer cell line MDA-MB-361; experiment: Cell proliferation inhibition assay, MDA-MB-361 (Cell Titer-Glo, 5 days); type: cell-based; settings: Homo sapiens, 120 h; MDA-MB-361, 5 days; read-out: IC50 MD-MBA-361
Excerpt: (§1) This assay was used to study the effect of PARP-1 inhibitor alone for tumor suppression. Breast cancer susceptibility genes BRCA1 and BRCA2 play an important role in homologous recombination DNA repair. BRCA-mutant (or deficient) cells represent homologous recombination repair defect, if PARP-mediated DNA repair is inhibited at the same time, DNA damage in cells may be increased, resulting in chromatin abnormality or even cell death.
(§2) BRCA-mutant (or deficient) human prostatic cancer cell line DU-145, lung adenocarcinoma cell line SW-1271, as well as breast cancer cell lines MDA-MB-436 and MDA-MB-361 were selected for the assay, PARP inhibitor was used alone to evaluate its damage effect on cells. The inhibition effect of the compound was expressed by IC50.
(§3) Prostatic cancer cell line DU-145 grown in EMEM supplement with 10% FBS was seeded in 96 well tissue culture plates (2000 cells/well). Lung adenocarcinoma cell line SW-1271 grown in L15 supplement with 10% FBS was seeded in 96 well tissue culture plates (4000 cells/well), and breast cancer cell line MDA-MB-361 grown in L15 supplement with 20% FBS was seeded in 96 well tissue culture plates (4000 cells/well). Test compounds (10 mM stock solution in DMSO) and reference compound staurosporine (1 mM stock solution in DMSO) were diluted by DMSO for 200 times to obtain the desired final concentration. 0.5 ul compound dilutions were directly added to the cells in 96 well plates, and the cells were incubated at 37° C. for 5 days. HPE control wells were added 1 uM staurosporine dilution, while ZPE wells were added 0.5% DMSO. After 5 days plates were equilibrated to room temperature and 50 ul of Cell Titer-Glo Reagent (Promega) was added to the culture wells. The plates were agitated briefly and luminescence signal was measured with Envision (PerkinElmer). […] IC50 values were calculated with Prism software (Graph Pad, San Diego, Calif., USA) for both test compounds and reference compound staurosporine.

[3] = tested on: lung adenocarcinoma cell line SW-1271; experiment: Cell proliferation inhibition assay, SW-1271 (Cell Titer-Glo, 5 days); type: cell-based; settings: Homo sapiens, SW1271, 120 h; SW-1271, 5 days
Excerpt: as §1, §2, §3

[4] = Pharmacokinetic test in male SD rats, tail vein injection; type: in vivo, rat; settings: for AUC(0-t) / MRT / clearance / half-life / Vd: rat, plasma, iv, 15 mg/kg tail vein injection; for Vd: read-out: Vdss
Method: Male SD rats were used as experimental animals in this test. […] LC-MS/MS method was used to test blood drug concentration, and Winnonlin 6.1 software was used to calculate pharmacokinetic parameters to study and evaluate the pharmacokinetic properties.
12 male SD rats weighed 180-260 g, purchased from Vital River Laboratory Animal Technology Co., Ltd.
0.2 mL blood was collected through jugular vein before dosing and at 5 min, 15 min, 30 min, 1 h, 2 h, 4 h, 8 h, 12 h and 24 h after the dosing, respectively, and put into heparinized tubes. The samples were centrifuged for 10 min at 5500 rpm to separate plasma, and stored at −30° C.
(§4) An aliquot of 20 μL of plasma sample was added with 200 μL acetonitrile (containing 5.00 ng/mL verapamil and 50.0 ng/mL glibenclamide as internal standards). The mixture was vortexed for 4 min, and then centrifuged at 3700 rpm for 18 min. An aliquot of 70 μL supernatant was added into 70 μL water, and then vortexed for 4 min. Finally, 10 μL of the mixture was injected into the LC-MS/MS system for analysis.
as §4, with “30” for “20”, “150” for “200”, “5” for “4”
Winnonlin 6.1 software was used to calculate pharmacokinetic parameters.

[5] = Solubility test (thermodynamic solubility in pH 7.4 phosphate buffer, HPLC); type: physicochemical
Method: In this test, excess amount of test sample was added into pH=7.4 phosphate buffer. Ultrasonic was performed for 30 min until the drug no longer dissolved. The solution was continuously shaked for 24 hours at a constant temperature of 25° C. to achieve a thermodynamic equilibrium of compound, and then the solution was filtrated to get filtrate. Quantitative analysis of compound in filtrate using external standard method is performed according to “Appendix VD High Performance Liquid Chromatography, Part II of Pharmacopeia 2010,” and the sample thermohynamic solubility in pH=7.4 phosphate buffer was determined.
Agilent 1200 LC, Phenomen C18 column (4.6 mm*150 mm, […]), mobile phase: methanol:water (60:40), flow rate: 1 mL/min, column temperature: 25° C., wave length: 230 nm, injection volume: 10 μL
About 30 mg test compound was put in a 10 mL volumetric flask, about 8 mL pH=7.4 phosphate buffer was added and ultrasonic was performed for 30 min, and the solution was shaked for 24 hours in a shaker at a constant temperature of 25° C. The solution was settled for half an hour under 25° C., filtered with 0.45 μm hydrophilic filter. The filtrate was used as test sample. […]
The test solution was injected for three times according to the above chromatographic conditions. The peak area was measured to calculate the corresponding concentration. […]

[6] = tested on: mice following a two hour occlusion of the MCA; settings: intracerebroventricular administration; cited from earlier work
[7] = tested on: rat model of focal cerebral ischemia; settings: i.p. 10 mg/kg two hours prior to and two hours after initiation of ischemia; cited from earlier work

Structure (SMILES): O=C(c1cc(Cc2n[nH]c(=O)c3ccccc23)ccc1F)N1CCN(C(=O)C2CC2)CC1 [AZD-2281, olaparib]
IC50 [1]: 65000 nM
IC50 [2]: > 10000 nM
IC50 [3]: 17400 nM
exposure ([4]; 15 mg/kg i.v.): low exposure
metabolic stability ([4]; 15 mg/kg i.v.): poor metabolic stability
AUC(0-t) [4]: 6440 ng·h/mL
MRT [4]: 19.8 min
clearance [4]: 39.1 mL/min/kg
half-life [4]: 40.9 min
Vd [4]: 0.766 L/kg

Structure (SMILES): CN(C)C1(C(=O)N2CCN(C(=O)c3cc(Oc4n[nH]c(=O)c5ccccc45)ccc3F)CC2)CC1 [Compound 124, 4-(3-(4-(1-(dimethylamino)cyclopropanecarbonyl)piperazine-1-carbonyl)-4-fluorophenoxy)2H-phthalazin-1-one]
IC50 [1]: 2700 nM
IC50 [3]: 1600 nM
pharmacokinetic properties relative to AZD-2281 ([4]; 15 mg/kg i.v.): significantly superior to AZD-2281
AUC(0-t) [4]: 10100 ng·h/mL
MRT [4]: 22.4 min
clearance [4]: 28 mL/min/kg
half-life [4]: 185 min
Vd [4]: 0.665 L/kg
water solubility relative to AZD-2281 [5]: enhanced by almost twice

Structure (SMILES): NC(=O)c1cccc(N)c1 [Compound 3-AB, 3-aminobenzamide]
decrease in infarct volume [6]: 47%

Structure (SMILES): CN(C)C1(C(=O)N2CCN(C(=O)c3cc(Oc4n[nH]c(=O)c5ccccc45)ccc3F)CC2)CCC1 [Compound 126, 4-(3-(4-(1-(dimethylamino)cyclobutanecarbonyl)piperazine-1-carbonyl)-4-fluorophenoxy)2H-phthalazin-1-one]
IC50 [1]: 1900 nM
IC50 [2]: 4000 nM
IC50 [3]: 1100 nM

Structure (SMILES): O=C1NCCc2c(OCCCCN3CCCCC3)cccc21 [DPQ, 3,4-dihydro-5-[4-(1-piperidinyl)butoxy]-1 (2H)-isoquinolinone]
reduction in infarct volume [7]: 54%

The remaining lines, values ahead:

IC50 [2]: 1900 nM
IC50 [3]: 770 nM
Structure (SMILES): O=C(c1cc(Oc2n[nH]c(=O)c3ccccc23)ccc1F)N1CCN(C(=O)C2CCC(F)(F)CC2)CC1 [Compound 107, 4-(3-(4-(4,4-difluorocyclohexanecarbonyl)piperazine-1-carbonyl)-4-fluorophenoxy)2H-phthalazin-1-one]

IC50 [1]: 3700 nM
IC50 [2]: 2400 nM
IC50 [3]: 1500 nM
Structure (SMILES): O=C(c1cc(Oc2n[nH]c(=O)c3ccccc23)ccc1F)N1CCN(C(=O)N2CCCCC2)CC1 [Compound 85, 4-(4-fluoro-3-(4-(piperidine-1-carbonyl)piperazine-1-carbonyl)phenoxy)-2H-phthalazin-1-one]
